Source: US20220096475A1, “METHOD FOR TREATING SARCOIDOSIS-ASSOCIATED PULMONARY HYPERTENSION” (ALTAVANT SCIENCES GmbH, priority 2018, published 2022)

How the values were obtained:
TPH1 = molecular target: T1, TPH1 (Mus musculus, UniProt P17532); settings: amorphous form; cited from earlier work
T1 construct: from tissue; host or cells: mice (in vivo)
T1 sequence (P17532 1-447): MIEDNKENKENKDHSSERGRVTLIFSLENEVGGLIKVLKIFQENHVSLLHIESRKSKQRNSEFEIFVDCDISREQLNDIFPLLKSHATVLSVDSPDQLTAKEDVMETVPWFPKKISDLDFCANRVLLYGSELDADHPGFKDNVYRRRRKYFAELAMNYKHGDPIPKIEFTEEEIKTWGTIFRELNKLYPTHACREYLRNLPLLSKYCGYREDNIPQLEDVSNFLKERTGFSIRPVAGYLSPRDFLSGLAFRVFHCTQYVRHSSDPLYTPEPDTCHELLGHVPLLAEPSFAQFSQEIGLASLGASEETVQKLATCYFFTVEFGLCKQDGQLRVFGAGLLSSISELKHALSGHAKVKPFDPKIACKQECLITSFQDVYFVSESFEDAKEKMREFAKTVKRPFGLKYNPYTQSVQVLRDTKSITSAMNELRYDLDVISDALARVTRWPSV

[1] = stability and shelf life of crystalline polymorphs; assay type: physicochemical; settings: particularly at temperatures of less than 95° C.

## CCOC(=O)[C@@H]1CC2(CCN(c3cc(O[C@H](c4ccc(Cl)cc4-c4ccccc4)C(F)(F)F)nc(N)n3)CC2)CN1 [Compound A, (S)-ethyl 8-(2-amino-6-((R)-1-(5-chloro-[1,1′-biphenyl]-2-yl)-2,2,2-trifluoroethoxy)pyrimidin-4-yl)-2,8-diazaspiro[4.5]decane-3-carboxylate]
TPH1
  efficacy in inhibiting TPH1 in mice: demonstrated

## CCOC(=O)[C@@H]1CC2(CCN(c3cc(O[C@H](c4ccc(Cl)cc4-c4ccccc4)C(F)(F)F)nc(N)n3)CC2)CN1 [crystalline Form 3 polymorph, (S)-ethyl 8-(2-amino-6-((R)-1-(5-chloro-[1,1′-biphenyl]-2-yl)-2,2,2-trifluoroethoxy)pyrimidin-4-yl)-2,8-diazaspiro[4.5]decane-3-carboxylate]
[1]
  stability and shelf life compared to the crystalline Form 1 polymorph: substantially greater stability and shelf life
